{
  "source": "patent US11596696B2",
  "about": "“Combination therapy with an anti-CD25 antibody-drug conjugate” (ADC Therapeutics SA, priority 2017, dated 2023)",
  "key": {"advanced melanoma": {"test_system": "advanced melanoma", "settings": "phase III; compared to the standard of care (temozolomide or dacarbazine); cited from earlier work"}, "[1]": {"test_system": "surface CD25 on Karpas299 cell line", "test": "Surface CD25 by flow cytometry (FACS) after Cytarabine (Example 5)", "format": "cell-based", "settings": "Karpas299 cell line (high in CD25) incubated with Cytarabine", "protocol": "(§1) After incubation, two parameters were measured: the amount of surface CD25 (as determined by flow cytometry) and the in vitro cytotoxicity of the combinations (as determined by CellTiter-Glo® or MTS assays). Cytotoxic synergy was calculated by transforming the cell viability data into fraction affected, and calculating the combination index (Table 1) using the CalcuSyn analysis program."}, "[2]": {"test_system": "surface CD25 on KG-1 cells", "test": "Surface CD25 by flow cytometry (FACS) after Cytarabine (Example 5)", "format": "cell-based", "settings": "CD25(+) KG-1 cells (low CD25) incubated with Cytarabine", "protocol": "as §1"}, "[3]": {"test_system": "CD25 surface protein on KG-1 cells", "test": "CD25 surface protein, antibodies bound per cell, QuantiBRITE-PE flow cytometry (Example 9)", "format": "cell-based, human", "description": "(§2) Cells were then washed and run on a Fortessa X20 flow cytometer."}, "[4]": {"test_system": "CD25 surface protein on Karpas-299 cells", "test": "CD25 surface protein, antibodies bound per cell, QuantiBRITE-PE flow cytometry (Example 9)", "format": "cell-based, human", "description": "as §2"}, "[5]": {"test_system": "IL2Ralpha (CD25) mRNA in Karpas-299 cells", "test": "CD25 mRNA expression by TaqMan qRT-PCR (Example 9)", "format": "cell-based", "settings": "Karpas299 cells; 30 nM Cytarabine; over the 72 hour period", "protocol": "(§3) Karpas-299, EOL-1 or KG-1 cells were incubated with 30 nM Cytarabine for 24 hours before mRNA was isolated and reverse-transcribed. cDNA was probed for IL2Ralpha (CD25) by TagMan qRT-PCR. Mean fold change in expression compared to the untreated control was calculated using the ddCT method using the reference gene abl-1. A time-course to measure expression change over 3-4 days was also done in Karpas-299 (high CD25 expressing) and KG-1 cells (low CD25 expressing) under the same conditions, only extending incubation time with Cytarabine."}, "[6]": {"test_system": "IL2Ralpha (CD25) mRNA in KG-1 cells", "test": "CD25 mRNA expression by TaqMan qRT-PCR (Example 9)", "format": "cell-based", "settings": "30 nM Cytarabine", "protocol": "as §3"}, "[7]": {"test_system": "surface CD25 on Karpas299 cell line", "test": "Surface CD25 by flow cytometry after decitabine (Example 6)", "format": "cell-based", "parameters": "dose or concentration left out as unconfirmed", "settings": "in the presence of decitabine", "experimental": "After incubation, two parameters were measured: the amount of surface CD25 (as determined by flow cytometry) and the in vitro cytotoxicity of the combinations (as determined by MTS assays)."}},
  "data": [
    {"compound": "tremelimumab: anti-CTLA4 antibody", "values": [
      {"measurement": "Overall survival of patients", "setting": "advanced melanoma", "result": "did not significantly increase the overall survival"}
    ]},
    {"compound": "Nc1ccn([C@@H]2O[C@H](CO)C(O)[C@@H]2O)c(=O)n1", "note": "(stereo in doubt) [Cytarabine, 4-amino-1-[(2R,3S,4R,5R)-3,4-dihydroxy-5-(hydroxymethyl)oxolan-2-yl] pyrimidin-2-one]", "values": [
      {"measurement": "Change in surface CD25", "setting": "[1]", "result": "No increase"},
      {"measurement": "Change in surface CD25 levels (FACS analysis)", "setting": "[2]", "result": "two-fold increase"},
      {"measurement": "Mean number of CD25 antibodies bound per cell", "setting": "[3]; KG-1 cells treated with 30 nM Cytarabine 24 hours (untreated ~200)", "result": "~400", "unit": "antibodies per cell"},
      {"measurement": "Levels of CD25 surface expression", "setting": "[3]; KG-1 cells, 30 nM Cytarabine, 24 hours", "result": "significantly increased"},
      {"measurement": "Mean number of CD25 antibodies bound per cell", "setting": "[4]; Karpas299 cells treated with 30 nM Cytarabine 24 hours (untreated the same)", "result": "~60000", "unit": "antibodies per cell"},
      {"measurement": "Effect on CD25 surface protein expression", "setting": "[4]; Karpas299 cells, 30 nM Cytarabine, 24 hour period", "result": "little effect"},
      {"measurement": "Effect on CD25 mRNA expression", "setting": "[5]", "result": "little effect"},
      {"measurement": "Increase in CD25 mRNA expression vs untreated control", "setting": "[6]; after 24 hours incubation", "result": 2, "unit": "fold"},
      {"measurement": "Increase in CD25 mRNA expression vs untreated control", "setting": "[6]; after 48 hours incubation", "result": 4, "unit": "fold"},
      {"measurement": "Increase in CD25 mRNA expression vs untreated control", "setting": "[6]; after 96 hours incubation", "result": 3, "unit": "fold"}
    ]},
    {"compound": "Nc1ncn([C@H]2C[C@H](O)[C@@H](CO)O2)c(=O)n1", "note": "[Decitabine, 4-Amino-1-(2-deoxy-β-D-erythro-pentofuranosyl)-1,3,5-triazin-2(1H)-one]", "values": [
      {"measurement": "Amount of CD25 on the cells", "setting": "[7]", "result": "no difference"}
    ]}
  ]
}
